Assay results from patent US7776558B2, “Human G protein-coupled receptor and modulators thereof for the treatment of cell death-related disorders” (Arena Pharmaceuticals, Inc., priority 2003, dated 2010).
“Also recorded” adds a separate entry of the source. Where no end group is shown, it is not given here.

Experiments:
[1] = test system: serum-deprived differentiated SH-SY5Y cells; assay: Cell death of serum-deprived differentiated SH-SY5Y cells; assay type: cell-based, human; conditions: serum-free medium 6 days; LDH assay (panel A) or Trypan Blue staining (panel B); FIG. 10
Description: Briefly, SH-SY5Y cells were differentiated into neuronal-like cells by treatment with retinoic acid (10 μM) for five days followed by treatment with BDNF (10 ng/ml) for two days. […] Cell viability was determined by lactate dehydrogenase (LDH) assay (Roche, Indianapolis, Ind.; catalog no. 1644793) or by trypan blue staining. LDH is a stable cytoplasmic enzyme present in all cells which is rapidly released upon damage to the plasma membrane. The level of LDH is inversely proportional to the number of viable cells. The LDH assay was carried out as per manufacturer's instructions.

[2] = molecular target: T1, FPRL2 (Homo sapiens, UniProt P25089); assay: Whole cell adenylate cyclase (cAMP) assay, stably transfected HEK293 cells; assay type: cell-based; set-up: expressed in transfected cells; conditions: in the presence of 5 μM forskolin, FIG. 6
T1 sequence (P25089 1-353): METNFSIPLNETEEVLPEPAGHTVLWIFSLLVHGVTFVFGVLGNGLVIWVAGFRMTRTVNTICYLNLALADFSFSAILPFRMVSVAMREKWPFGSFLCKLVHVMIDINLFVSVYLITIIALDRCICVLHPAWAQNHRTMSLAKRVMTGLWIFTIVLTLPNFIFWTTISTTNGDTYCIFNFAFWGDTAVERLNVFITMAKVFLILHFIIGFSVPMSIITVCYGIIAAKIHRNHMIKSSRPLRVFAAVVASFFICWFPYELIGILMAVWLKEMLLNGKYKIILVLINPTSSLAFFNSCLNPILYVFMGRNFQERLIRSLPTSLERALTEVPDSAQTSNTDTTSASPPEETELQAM
Source text: A Flash Plate™ Adenylyl Cyclase kit (New England Nuclear; Cat. No. SMP004A) designed for cell-based assays can be modified for use with crude plasma membranes. The Flash Plate wells can contain a scintillant coating which also contains a specific antibody recognizing cAMP. The cAMP generated in the wells can be quantitated by a direct competition for binding of radioactive cAMP tracer to the cAMP antibody. The following serves as a brief protocol for the measurement of changes in cAMP levels in whole cells that express the receptors.
Transfected cells are harvested approximately twenty four hours after transient transfection. Media is carefully aspirated off and discarded. 10 ml of PBS is gently added to each dish of cells followed by careful aspiration. 1 ml of Sigma cell dissociation buffer and 3 ml of PBS are added to each plate. Cells are pipetted off the plate and the cell suspension is collected into a 50 ml conical centrifuge tube. Cells are then centrifuged at room temperature at 1,100 rpm for 5 min. The cell pellet is carefully re-suspended into an appropriate volume of PBS (about 3 ml/plate). The cells are then counted using a hemocytometer and additional PBS is added to give the appropriate number of cells (with a final volume of about 50 μl/well).
cAMP standards and Detection Buffer (comprising 1 μCi of tracer [^125I cAMP (50 μl] to 11 ml Detection Buffer) is prepared and maintained in accordance with the manufacturer's instructions. Assay Buffer is prepared fresh for screening and contains 50 μl of Stimulation Buffer, 3 ul of test compound (12 μM final assay concentration) and 50 μl cells, Assay Buffer is stored on ice until utilized. The assay is initiated by addition of 50 μl of cAMP standards to appropriate wells followed by addition of 50 ul of PBSA to wells H-11 and H12. 50 μl of Stimulation Buffer is added to all wells. DMSO (or selected candidate compounds) is added to appropriate wells using a pin tool capable of dispensing 3 μl of compound solution, with a final assay concentration of 12 μM test compound and 100 μl total assay volume. The cells are then added to the wells and incubated for 60 min at room temperature. 100 μl of Detection Mix containing tracer cAMP is then added to the wells. Plates are then incubated additional 2 hours followed by counting in a Wallac MicroBeta scintillation counter. Values of cAMP/well are then extrapolated from a standard cAMP curve which is contained within each assay plate.
In FIG. 6, agonist activity was determined through adenylate cyclase activity. […] Samples were then assessed for the level of intracellular cAMP as described in Example 4, supra.

Row | Molecule | Inhibition of cell death of serum-deprived SH-SY5Y cells [1] | Agonist activity at FPRL2, intracellular cAMP [2] | Agonist activity at FPRL2, intracellular cAMP ([2]; listed as Human)
1 | CC(C)c1ccc2c(c1)CCC1C(C)(C(N)=O)CCCC21C (stereo not drawn) [Compound 1, 7-Isopropyl-1,4a-dimethyl-1,2,3,4,4a,9,10,10a-octahydro-phenanthrene-1-carboxylic acid amide] | inhibit cell death | selectively an agonist of FPRL2 | –
2 | CC[C@H](C)[C@H](NC(=O)[C@H](CCC(=O)O)NC(=O)[C@H](CO)NC(=O)[C@@H](NC(=O)[C@H](CC(C)C)NC(=O)[C@H](CC(C)C)NC(=O)[C@H](CC(C)C)NC(=O)[C@H](CC(C)C)NC(=O)[C@H](CS)NC(=O)[C@H](CO)NC(=O)[C@H](Cc1ccccc1)NC(=O)CNC(=O)[C@H](CCCNC(=N)N)NC(=O)[C@@H]1CCCN1C(=O)[C@H](C)NC(=O)[C@@H](N)CCSC)[C@@H](C)O)C(=O)N[C@@H](CC(=O)O)C(=O)N[C@@H](CC(C)C)C(=O)N1CCC[C@H]1C(=O)N[C@H](C(=O)N[C@@H](CCCCN)C(=O)N[C@@H](CCCNC(=N)N)C(=O)N[C@@H](CCCNC(=N)N)C(=O)N[C@@H](C)C(=O)O)C(C)C [Humanin] | inhibit cell death | agonists of both FPRL1 and FPRL2 | agonists of both FPRL2 and FPRL1
3 | MAPRGFSCLLLLTGEIDLPVKRRA [[Gly14]-Humanin] | – | agonists of both FPRL1 and FPRL2; also recorded: agonists of both FPRL2 and FPRL1 | –
